Measurements published in PubChem BioAssay AID256 (DTP/NCI, 2004).
Where “and” joins values, the source holds several entries; their conditions need not be identical. Equal entries are not always repeated. Inconclusive results and toxic doses are left out. How the source made its calls: active means survival T/C of 150% or more; inactive means T/C below 125% in these data.

Tested on: CD2F1 mice, L1210 leukemia ip, survival T/C
Experiment: NCI In Vivo Anticancer Drug Screen. Data for tumor model L1210 Leukemia (intraperitoneal) in CD2F1 (CDF1) mice
Conditions: higher = longer survival
Method in brief: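 Read-out first: treated-group measurement over vehicle-control measurement, expressed as a ratio. Animals bore a transplanted tumor line and were dosed with compound or vehicle.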

[1] = endpoint: mean survival time, dose: 25.0 mg/kg/injection, schedule: Q01DX009 (ip), vehicle: saline with Tween-80
[2] = endpoint: mean survival time, dose: 50.0 mg/kg/injection, schedule: Q01DX009 (ip), vehicle: saline with Tween-80
[3] = endpoint: mean survival time, dose: 100.0 mg/kg/injection, schedule: Q01DX009 (ip), vehicle: saline with Tween-80
[4] = endpoint: mean survival time, dose: 75.0 mg/kg/injection, schedule: Q01DX001 (ip), vehicle: other
[5] = endpoint: mean survival time, dose: 150.0 mg/kg/injection, schedule: Q01DX001 (ip), vehicle: other
[6] = endpoint: mean survival time, dose: 200.0 mg/kg/injection, schedule: Q01DX009 (ip), vehicle: saline with Tween-80
[7] = endpoint: mean survival time, dose: 400.0 mg/kg/injection, schedule: Q01DX009 (ip), vehicle: saline with Tween-80
[8] = endpoint: mean survival time, dose: 100.0 mg/kg/injection, schedule: Q04DX003 (ip), vehicle: saline with Tween-80
[9] = endpoint: mean survival time, dose: 200.0 mg/kg/injection, schedule: Q04DX003 (ip), vehicle: saline with Tween-80
[10] = endpoint: mean survival time, dose: 400.0 mg/kg/injection, schedule: Q04DX003 (ip), vehicle: saline with Tween-80
[11] = endpoint: mean survival time, dose: 100.0 mg/kg/injection, schedule: Q01DX009 (ip), vehicle: saline
[12] = endpoint: mean survival time, dose: 100.0 mg/kg/injection, schedule: Q04DX002 (ip), vehicle: saline with Tween-80
[13] = endpoint: mean survival time, dose: 12.5 mg/kg/injection, schedule: Q01DX009 (ip), vehicle: saline
[14] = endpoint: mean survival time, dose: 25.0 mg/kg/injection, schedule: Q01DX009 (ip), vehicle: saline
[15] = endpoint: mean survival time, dose: 50.0 mg/kg/injection, schedule: Q01DX009 (ip), vehicle: saline

Measured: T/C

O=c1nc(N2CCCCC2)ccn1C1OC(CO)C(O)C1O (stereo not drawn)
inactive: endpoint: median survival time, dose: 12.5 mg/kg/injection, schedule: Q01DX005 (ip), vehicle: water 98 % of control | endpoint: median survival time, dose: 25.0 mg/kg/injection, schedule: Q01DX005 (ip), vehicle: water 106 % of control | endpoint: median survival time, dose: 50.0 mg/kg/injection, schedule: Q01DX005 (ip), vehicle: water 106 % of control | endpoint: median survival time, dose: 100.0 mg/kg/injection, schedule: Q01DX005 (ip), vehicle: water 112 % of control | endpoint: median survival time, dose: 200.0 mg/kg/injection, schedule: Q01DX005 (ip), vehicle: water 104 % of control

CO[C@@]12[C@@H]3N[C@@H]3CN1c1c(O)c(C)c(N=C3N=NC(=S)S3)c(O)c1[C@@H]2COC(N)=O
inactive: endpoint: mean survival time, dose: 1.5 mg/kg/injection, schedule: Q01DX001 (ip), vehicle: distilled water + Tween-80 98 % of control | endpoint: mean survival time, dose: 3.0 mg/kg/injection, schedule: Q01DX001 (ip), vehicle: distilled water + Tween-80 98 % of control | endpoint: mean survival time, dose: 6.0 mg/kg/injection, schedule: Q01DX001 (ip), vehicle: distilled water + Tween-80 98 % of control | endpoint: mean survival time, dose: 12.0 mg/kg/injection, schedule: Q01DX001 (ip), vehicle: distilled water + Tween-80 102 % of control | endpoint: mean survival time, dose: 24.0 mg/kg/injection, schedule: Q01DX001 (ip), vehicle: distilled water + Tween-80 110 % of control | endpoint: mean survival time, dose: 48.0 mg/kg/injection, schedule: Q01DX001 (ip), vehicle: saline with Tween-80 100 % of control | endpoint: mean survival time, dose: 96.0 mg/kg/injection, schedule: Q01DX001 (ip), vehicle: saline with Tween-80 110 % of control

CCCCOC(=O)c1ccc(NC(=O)Nc2ccccc2)cc1
inactive: [1] 92 % of control | [2] 97 % of control | [3] 93 % of control

CC1=NN(c2ccc([N+](=O)[O-])cc2)C(=O)C1[N+](=O)[O-] (stereo not drawn) (tested in a mixture with another compound)
inactive: [4] 92 % of control | endpoint: mean survival time, dose: 100.0 mg/kg/injection, schedule: Q01DX001 (ip), vehicle: saline with Tween-80 91 % of control | [5] 104 % of control | endpoint: mean survival time, dose: 200.0 mg/kg/injection, schedule: Q01DX001 (ip), vehicle: saline with Tween-80 97 % of control

Cc1ccc(NC(=S)Nc2ccc(C)cc2)cc1
inactive: [3] 89 % of control | [6] 91 % of control | [7] 93 % of control

CCCC(=O)OCc1ccc(Cl)c(Cl)c1
inactive: [2] 97 % of control | [3] 92 % of control | [8] 91 % of control | [9] 87 % of control

Cc1cc(C)c(/C=N/NC(=O)NN)c(C)c1
inactive: [8] 91 % of control | [9] 96 % of control | [10] 88 % of control

Clc1ccc2nnnn2n1
inactive: endpoint: mean survival time, dose: 12.5 mg/kg/injection, schedule: Q01DX009 (ip), vehicle: saline with Tween-80 105 % of control | [1] 113 % of control and 114 % of control | endpoint: mean survival time, dose: 25.0 mg/kg/injection, schedule: Q04DX003 (ip), vehicle: saline with Tween-80 96 % of control | endpoint: mean survival time, dose: 31.75 mg/kg/injection, schedule: Q04DX003 (ip), vehicle: saline with Tween-80 106 % of control | [2] 100 % of control and 110 % of control | endpoint: mean survival time, dose: 50.0 mg/kg/injection, schedule: Q04DX003 (ip), vehicle: saline with Tween-80 100 % of control | endpoint: mean survival time, dose: 62.5 mg/kg/injection, schedule: Q04DX003 (ip), vehicle: saline with Tween-80 103 % of control | [3] 114 % of control and 122 % of control | [8] 107 % of control | endpoint: mean survival time, dose: 125.0 mg/kg/injection, schedule: Q04DX003 (ip), vehicle: saline with Tween-80 103 % of control | [6] 100 % of control | [9] 105 % of control | endpoint: mean survival time, dose: 250.0 mg/kg/injection, schedule: Q04DX003 (ip), vehicle: saline with Tween-80 105 % of control | [10] 108 % of control | endpoint: median survival time, dose: 25.0 mg/kg/injection, schedule: Q01DX009 (ip), vehicle: saline with Tween-80 102 % of control and 103 % of control | endpoint: median survival time, dose: 25.0 mg/kg/injection, schedule: Q04DX003 (ip), vehicle: saline with Tween-80 114 % of control | endpoint: median survival time, dose: 50.0 mg/kg/injection, schedule: Q01DX009 (ip), vehicle: saline with Tween-80 113 % of control and 108 % of control | endpoint: median survival time, dose: 50.0 mg/kg/injection, schedule: Q04DX003 (ip), vehicle: saline with Tween-80 112 % of control | endpoint: median survival time, dose: 100.0 mg/kg/injection, schedule: Q01DX009 (ip), vehicle: saline with Tween-80 118 % of control | endpoint: median survival time, dose: 100.0 mg/kg/injection, schedule: Q04DX003 (ip), vehicle: saline with Tween-80 113 % of control | endpoint: median survival time, dose: 200.0 mg/kg/injection, schedule: Q01DX009 (ip), vehicle: saline with Tween-80 117 % of control and 108 % of control | endpoint: median survival time, dose: 200.0 mg/kg/injection, schedule: Q04DX003 (ip), vehicle: saline with Tween-80 110 % of control | endpoint: median survival time, dose: 400.0 mg/kg/injection, schedule: Q04DX003 (ip), vehicle: saline with Tween-80 118 % of control

CN1CCc2[nH]c3ccccc3c2C1
inactive: [4] 93 % of control | endpoint: mean survival time, dose: 100.0 mg/kg/injection, schedule: Q04DX002 (ip), vehicle: Klucel (hydroxypropylcellulose) (HPC) 95 % of control | [5] 93 % of control | endpoint: mean survival time, dose: 200.0 mg/kg/injection, schedule: Q04DX002 (ip), vehicle: Klucel (hydroxypropylcellulose) (HPC) 103 % of control

OCC1C=CCC=C1
inactive: [11] 95 % of control | endpoint: mean survival time, dose: 200.0 mg/kg/injection, schedule: Q01DX009 (ip), vehicle: saline 107 % of control | endpoint: mean survival time, dose: 400.0 mg/kg/injection, schedule: Q01DX009 (ip), vehicle: saline 101 % of control

Nc1cc(S(=O)(=O)c2ccc(/C=C/c3ccccc3)c(N)c2)ccc1/C=C/c1ccccc1
inactive: [3] 93 % of control | [6] 94 % of control and 88 % of control | [7] 91 % of control

CNC(=O)Nc1ccc(C(=O)NC(C)C)cc1
inactive: endpoint: mean survival time, dose: 22.0 mg/kg/injection, schedule: Q01DX009 (ip), vehicle: other 93 % of control | endpoint: mean survival time, dose: 33.0 mg/kg/injection, schedule: Q01DX009 (ip), vehicle: other 102 % of control | endpoint: mean survival time, dose: 50.0 mg/kg/injection, schedule: Q01DX009 (ip), vehicle: other 94 % of control | endpoint: mean survival time, dose: 100.0 mg/kg/injection, schedule: Q01DX009 (ip), vehicle: other 95 % of control | endpoint: mean survival time, dose: 200.0 mg/kg/injection, schedule: Q01DX009 (ip), vehicle: other 91 % of control | endpoint: mean survival time, dose: 400.0 mg/kg/injection, schedule: Q01DX009 (ip), vehicle: other 96 % of control | endpoint: mean survival time, dose: 800.0 mg/kg/injection, schedule: Q01DX009 (ip), vehicle: other 100 % of control

COc1ccccc1N=Nc1c(O)n(-c2ccccc2Cl)c(=S)n(-c2ccccc2OC)c1=O
inactive: endpoint: mean survival time, dose: 25.0 mg/kg/injection, schedule: Q04DX002 (ip), vehicle: saline with Tween-80 105 % of control | endpoint: mean survival time, dose: 50.0 mg/kg/injection, schedule: Q04DX002 (ip), vehicle: saline with Tween-80 90 % of control | [12] 94 % of control

CCCCCC(C)(C)N=C=S
inactive: [8] 100 % of control | [9] 96 % of control

O=C(O)C(CNC(=O)C(F)(F)F)Cc1ccc([N+](=O)[O-])cc1 (stereo not drawn)
inactive: [13] 98 % of control and 101 % of control | [14] 98 % of control | [15] 97 % of control and 107 % of control | [11] 103 % of control

O=C(OCC(OC(=O)c1ccccc1)C(OC(=O)c1ccccc1)C(O)C(O)CO)c1ccccc1 (stereo not drawn) (tested in a mixture with another compound)
inactive: [12] 114 % of control | endpoint: mean survival time, dose: 200.0 mg/kg/injection, schedule: Q04DX002 (ip), vehicle: saline with Tween-80 100 % of control

Oc1cc(N2CC2)c(O)cc1N1CC1
inactive: endpoint: mean survival time, dose: 0.07 mg/kg/injection, schedule: Q01DX009 (ip), vehicle: saline 111 % of control | endpoint: mean survival time, dose: 0.15 mg/kg/injection, schedule: Q01DX009 (ip), vehicle: saline 116 % of control

CC1=CCC2C(=O)NC(=O)C2C1 (stereo not drawn)
inactive: [2] 96 % of control | [3] 104 % of control | [6] 104 % of control

CCC[CH2][Sn]1([CH2]CCC)[O]CC2OC(n3cc(C)c(=O)[nH]c3=O)CC2[O]1 (stereo not drawn)
inactive: endpoint: mean survival time, dose: 0.78 mg/kg/injection, schedule: Q01DX005 (ip), vehicle: other 97 % of control | endpoint: mean survival time, dose: 1.56 mg/kg/injection, schedule: Q01DX005 (ip), vehicle: other 101 % of control | endpoint: mean survival time, dose: 3.13 mg/kg/injection, schedule: Q01DX005 (ip), vehicle: other 106 % of control

N#C/C(=C(/C#N)c1ccccc1)c1ccccc1
inactive: [8] 96 % of control | [9] 94 % of control | [10] 88 % of control

O=C(/C=C(\Br)c1ccccc1)c1ccccc1
inactive: [12] 91 % of control

OCC1CC=CCC1 (stereo not drawn)
inactive: [8] 97 % of control | [9] 90 % of control | [10] 95 % of control

Cc1cccc(N2CCN(CCO)CC2)c1
inactive: [13] 109 % of control | [14] 102 % of control | [15] 100 % of control
